Like-named read-outs stand apart in the source and are kept apart here.

One data set deals with Septoria tritici. Description: In vivo preventive Septoria tritici test (wheat). The following applies: Zymoseptoria tritici, 504 h, 21 days after inoculation, read-out: Efficacy in % found; for pest or weed control at 125 ppm: 125 ppm a.i.; for pest or weed control at 250 ppm: 250 ppm a.i. The protocol:
After the spray coating has been dried, the plants are sprayed with a spore suspension of Septoria tritici.
The test is evaluated 21 days after the inoculation.

The next data set has as its system Botrytis cinerea. Briefly: In vitro-Test with Botrytis cinerea. It is filed as cell-based.
The test system of the next data set is Fusarium culmorum. Description: In vitro-Test with Fusarium culmorum. It is filed as cell-based.
Another data set has as its system Pyrenophora teres. Briefly: In vitro-Test with Pyrenophora teres. The data set is classed as cell-based.
The test system of a further data set is Puccinia triticina. Description: In vivo preventive Puccinia triticina test (wheat). To be noted: Puccinia triticina, 192 h, 8 days after inoculation, read-out: Efficacy in % found; for pest or weed control at 250 ppm: 250 ppm a.i.; for pest or weed control at 7.5 ppm: 7.5 ppm a.i.; for pest or weed control at 15 ppm: 15 ppm a.i.; for pest or weed control at 30 ppm: 30 ppm a.i. The protocol:
After the spray coating has been dried, the plants are sprayed with a spore suspension of Puccinia triticina.
The test is evaluated 8 days after the inoculation.

In a further data set the test system is Sphaerotheca fuliginea. Briefly: In vivo preventive test on Sphaerotheca (cucumbers). To be noted: 7 days after inoculation.
The subject of the next data set is Rhizoctonia solani. Briefly: In vitro-Test with Rhizoctonia solani. It is filed as cell-based. The following applies: compound alone.
Data set [1] can be described thus: In vivo ecotoxicity screening test on fish (Danio rerio). To be noted: Danio rerio, in vivo, other: exposure of embryos to the aqueous preparation. The method, boiled down: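 Zebrafish mortality recorded after 96 h across five increasing concentrations between 0.01 and 1000 ppm a.i., with at most 0.5% DMSO. Mixtures tested at A:B weight ratios of 5:1 to 1:5; measured ECx compared with predicted value as the Model Deviation Ratio.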

Data set [2] relates to Blumeria graminis f.sp. hordei. Briefly: In vivo preventive Blumeria test (barley). The following applies: Table F2, 7 days after inoculation.
For a further data set, the system named is Phakopsora pachyrhizi. Description: In vivo preventive test on Phakopsora (soybeans). To be noted: Table C3, 7 days after inoculation.
For another data set, the system named is Leptosphaeria nodorum. Briefly: In vitro-Test with Leptosphaeria nodorum. It is filed as cell-based. To be noted: 0.04 ppm.
Another data set has as its system Venturia inaequalis. Description: In vivo preventive test on Venturia (apples). To be noted: Table E2, 10 days after inoculation. The protocol:
The test is evaluated 10 days after the inoculation.

A further data set relates to Ustilago avenae. Description: In vitro-Test with Ustilago avenae. The data set is classed as cell-based. To be noted: compound alone.
The subject of another data set is Pyricularia oryzae. The data set is classed as cell-based.

As for `CC1(C)N=C(c2cnc3ccccc3c2)c2ccccc2C1(F)F` [Example 15.047, 3-(4,4-difluoro-3,3-dimethyl-3,4-dihydroisoquinolin-1-yl)quinoline], the pest or weed control at 125 ppm with Septoria tritici was 0%; with Puccinia triticina (125 ppm a.i.), 11%. Also, the values for the pest or weed control at 250 ppm in the data set on Septoria tritici and in the data set on Puccinia triticina were 0% and 11%, respectively. The pest or weed control at 500 ppm in the data set with Septoria tritici (500 ppm a.i.) came out at 0%; in the data set with Puccinia triticina (500 ppm a.i.), 22%. Also, the Efficacy % in the data set on Botrytis cinerea (1 ppm) is listed as 0%; in the data set with Botrytis cinerea (5 ppm), 0%; with Fusarium culmorum (0.04 ppm), 83%; in the data set on Fusarium culmorum (0.2 ppm), 100%; in the data set with Pyrenophora teres (0.04 ppm), 28%; in the data set with Pyrenophora teres (0.2 ppm) it was 76%. The Efficacy % in the data set with Pyrenophora teres (1 ppm) was found to be 64%; in the data set on Rhizoctonia solani (1 ppm), 0%; with Rhizoctonia solani (5 ppm) it was 0%. In addition, the “Efficacy in % found” value with Sphaerotheca fuliginea (Table D2, 2.5 ppm a.i.) is reported as 0%; in the data set on Sphaerotheca fuliginea (Table D2, 5 ppm a.i.) it was 0%; in the data set with Sphaerotheca fuliginea (Table D2, 10 ppm a.i.), 8%. In addition, the LC50 at 96 h in data set [1] was determined as 7.82 µg/mL.

`N#Cc1c(Cl)c(Cl)c(Cl)c(C#N)c1Cl` [Example 5.004, chlorothalonil]: the pest or weed control at 62.5 ppm with Septoria tritici (62.5 ppm a.i.) and with Puccinia triticina (62.5 ppm a.i.) was 0% each time. In the data set on Septoria tritici, the pest or weed control at 125 ppm was 0%. Moreover, the pest or weed control at 250 ppm in the data set on Septoria tritici came to 14%; in the data set on Puccinia triticina it was 40%. In addition, the “Efficacy in % found” value in [2] (62.5 ppm a.i.) is on record as 22%; in data set [2] (125 ppm a.i.) it was 44%; in data set [2] (250 ppm a.i.) it was 44%; in the data set on Phakopsora pachyrhizi (25 ppm a.i.) it was 8%; with Phakopsora pachyrhizi (50 ppm a.i.), 0%; in the data set with Venturia inaequalis (12.5 ppm a.i.) it was 24%. Besides, the results for the “Efficacy in % found” value in the data set with Venturia inaequalis (25 ppm a.i.) and in the data set on Venturia inaequalis (50 ppm a.i.) were 14% and 93%, respectively. Moreover, the Efficacy % with Leptosphaeria nodorum worked out at 0%.

As for `CC(C)c1ccc(Cl)cc1CN(C(=O)c1c(C(F)F)nn(C)c1F)C1CC1` [Example 2.038, N-(5-chloro-2-isopropylbenzyl)-N-cyclopropyl-3-(difluoromethyl)-5-fluoro-1-methyl-1H-pyrazole-4-carboxamide], the Efficacy % came out at 43% with Ustilago avenae (0.8 ppm); 49% in the data set on Ustilago avenae (4 ppm); 52% in the data set on Ustilago avenae (20 ppm); 57% in the data set with Pyrenophora teres (0.8 ppm); 82% in the data set with Pyrenophora teres (4 ppm); 55% with Pyrenophora teres (20 ppm). Further, the results for the Efficacy % in the data set on Pyricularia oryzae (0.8 ppm), with Pyricularia oryzae (4 ppm) and in the data set on Pyricularia oryzae (20 ppm) were 0%, 51% and 75%, respectively. Moreover, the pest or weed control at 7.5 ppm in the data set with Puccinia triticina was found to be 22%; in the data set on Puccinia triticina (Table H1) it was 33%. Moreover, the pest or weed control at 15 ppm in the data set on Puccinia triticina and with Puccinia triticina (Table H1) was 33% each time. Besides, the pest or weed control at 30 ppm was determined as 44% with Puccinia triticina and 33% with Puccinia triticina (Table H1). Also, the “Efficacy in % found” value is 40% with Sphaerotheca fuliginea (Table D3, 1 ppm a.i.); 93% in the data set with Sphaerotheca fuliginea (Table D3, 2 ppm a.i.); 98% in the data set with Sphaerotheca fuliginea (Table D3, 4 ppm a.i.). Further, the LC50 at 96 h in data set [1] came to 1.74 µg/mL.

Broadly, the LC50 is the concentration that kills 50% of the test population.

The values above are taken from patent publication US20200008426A1, “ACTIVE COMPOUND COMBINATIONS” (BAYER AKTIENGESELLSCHAFT, priority 2017, published 2020).
